The source of these data is ChEMBL document CHEMBL1136971, “Nascent structure-activity relationship study of a diastereomeric series of kappa opioid receptor antagonists derived from CJ-15,208” (Bioorg Med Chem Lett, 2009).

For test [1], the target named is Delta-type opioid receptor (Homo sapiens, UniProt P41143). Kind of test: Displacement of [3H]diprenorphine from human cloned delta receptor by cell based assay.
In test [2] the target is T1, Kappa-type opioid receptor (Homo sapiens, UniProt P41145). Kind of test: Displacement of [3H]diprenorphine from human cloned kappa opioid receptor by cell based assay.
For test [3], the target named is T2, Mu-type opioid receptor (Homo sapiens, UniProt P35372). Kind of test: Displacement of [3H]diprenorphine from human cloned mu receptor by cell based assay.
The species entered for another test is Homo sapiens. Kind of test: Ratio of Ki for human cloned mu opioid receptor to Ki for human cloned kappa opioid receptor.
In test [4] the target is T2, Mu-type opioid receptor. Put plainly: Antagonist activity at human cloned mu opioid receptor assessed as inhibition of 100 nM loperamide-stimulated GTPgammaS binding by cell based assay. Type of test: functional.
For test [5], the target named is T1, Kappa-type opioid receptor. Kind of test: Antagonist activity at human cloned kappa opioid receptor assessed as inhibition of 50 nM U50488H-stimulated GTPgammaS binding by cell based assay. Type of test: functional.
The target in test [6] is Mu-type opioid receptor (Cavia porcellus, UniProt P97266). Kind of test: Binding affinity to mu opioid receptor in guinea pig brain membrane. The test is classed as cell membranes.
The nature of test [7]: Antagonist activity at kappa opioid receptor in rabbit vas deferens assessed as reversal of asimadoline-suppressed electrically-stimulated twitch response. Type of test: functional, tissue-based. To be noted: Oryctolagus cuniculus.
Test [8] can be described thus: Binding affinity to delta opioid receptor in guinea pig brain membrane. The test is classed as cell membranes, Cavia porcellus.
Test [9] concerns the target Kappa-type opioid receptor (Cavia porcellus, UniProt P41144). Kind of test: Binding affinity to kappa opioid receptor in guinea pig brain membrane. Type of test: cell membranes.

Square brackets hold non-standard residues; d marks the D form. Peptide text beside a SMILES is read from it.

Delta-type opioid receptor, sequence (P41143 whole entry): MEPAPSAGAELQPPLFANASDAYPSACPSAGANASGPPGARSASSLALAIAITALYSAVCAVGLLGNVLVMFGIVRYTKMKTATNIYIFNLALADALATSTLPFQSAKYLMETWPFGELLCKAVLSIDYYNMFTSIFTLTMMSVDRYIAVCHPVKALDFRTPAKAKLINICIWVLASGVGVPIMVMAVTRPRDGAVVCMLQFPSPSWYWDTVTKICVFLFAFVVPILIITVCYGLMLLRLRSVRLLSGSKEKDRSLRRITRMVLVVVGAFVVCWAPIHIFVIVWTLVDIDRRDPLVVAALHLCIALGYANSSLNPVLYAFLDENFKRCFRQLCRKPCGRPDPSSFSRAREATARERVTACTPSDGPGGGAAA
T1 sequence (P41145 whole entry): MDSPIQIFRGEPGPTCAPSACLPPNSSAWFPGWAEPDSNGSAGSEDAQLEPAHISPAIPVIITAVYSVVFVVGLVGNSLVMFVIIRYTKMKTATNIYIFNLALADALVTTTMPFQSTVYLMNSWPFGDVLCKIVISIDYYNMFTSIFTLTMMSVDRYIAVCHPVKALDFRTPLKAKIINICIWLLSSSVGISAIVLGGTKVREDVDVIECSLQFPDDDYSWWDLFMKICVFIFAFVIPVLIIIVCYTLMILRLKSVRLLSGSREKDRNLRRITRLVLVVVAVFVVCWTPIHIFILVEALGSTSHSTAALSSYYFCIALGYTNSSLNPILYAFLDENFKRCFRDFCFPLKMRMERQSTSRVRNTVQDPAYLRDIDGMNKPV
T2 sequence (P35372 whole entry): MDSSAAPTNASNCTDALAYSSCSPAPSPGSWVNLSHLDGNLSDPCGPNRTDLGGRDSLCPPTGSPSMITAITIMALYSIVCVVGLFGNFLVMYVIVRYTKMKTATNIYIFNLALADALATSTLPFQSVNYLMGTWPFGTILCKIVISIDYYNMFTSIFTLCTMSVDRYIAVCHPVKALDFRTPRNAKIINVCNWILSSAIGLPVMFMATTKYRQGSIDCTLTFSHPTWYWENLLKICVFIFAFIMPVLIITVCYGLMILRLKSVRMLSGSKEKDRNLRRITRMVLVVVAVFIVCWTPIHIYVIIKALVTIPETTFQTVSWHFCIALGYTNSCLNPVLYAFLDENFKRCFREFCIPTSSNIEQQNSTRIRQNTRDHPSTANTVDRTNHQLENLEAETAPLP
Mu-type opioid receptor (Cavia porcellus, UniProt P97266), sequence (P97266 whole entry): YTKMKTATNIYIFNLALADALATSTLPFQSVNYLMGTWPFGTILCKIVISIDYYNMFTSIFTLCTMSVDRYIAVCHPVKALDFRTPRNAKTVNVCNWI
Kappa-type opioid receptor (Cavia porcellus, UniProt P41144), sequence (P41144 whole entry): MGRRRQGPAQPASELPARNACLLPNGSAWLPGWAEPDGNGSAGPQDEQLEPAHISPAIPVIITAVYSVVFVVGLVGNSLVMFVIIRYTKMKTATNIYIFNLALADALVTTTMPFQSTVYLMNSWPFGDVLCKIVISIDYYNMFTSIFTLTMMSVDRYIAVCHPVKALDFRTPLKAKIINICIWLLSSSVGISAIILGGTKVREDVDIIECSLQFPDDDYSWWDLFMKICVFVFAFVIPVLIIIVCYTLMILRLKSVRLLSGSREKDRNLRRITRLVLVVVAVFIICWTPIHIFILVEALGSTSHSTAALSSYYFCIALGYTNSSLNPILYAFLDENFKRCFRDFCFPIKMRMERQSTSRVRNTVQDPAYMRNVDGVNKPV

With `O=C1N[C@H](Cc2c[nH]c3ccccc23)C(=O)N[C@@H](Cc2ccc(O)cc2)C(=O)N2CCC[C@@H]2C(=O)N[C@H]1Cc1ccccc1`, the inhibitory constant (Ki) is greater than 1000 nM in [1] and 220 nM in [2].
For the molecule `O=C1N[C@H](Cc2c[nH]c3ccccc23)C(=O)N[C@@H](Cc2cccc(O)c2)C(=O)N2CCC[C@@H]2C(=O)N[C@H]1Cc1ccccc1`, the results for the inhibition constant Ki (on Mu-type opioid receptor [3]; in test [1]; in [2]) were 37 nM, 670 nM and 78 nM, respectively. For the same molecule, the Ratio Ki in the test filed under Homo sapiens came to 0.47.
With `CC(=O)N[C@@H](Cc1ccccc1)C(=O)N[C@H](Cc1c[nH]c2ccccc12)C(=O)N[C@@H](Cc1ccccc1)C(=O)N1CCC[C@@H]1C(N)=O`, the Ki on Mu-type opioid receptor [3] is 360 nM; in test [1], greater than 1000 nM; in test [2], greater than 1000 nM.
As to `O=C1N[C@H](Cc2c[nH]c3ccccc23)C(=O)NCC(=O)N2CCC[C@@H]2C(=O)N[C@H]1Cc1ccccc1`, the Ki was 770 nM at Mu-type opioid receptor [3], greater than 1000 nM in [1] and 270 nM in test [2]. Also, the Ratio Ki in the test listed under Homo sapiens was found to be 2.8.
On to `O=C1N[C@H](Cc2c[nH]c3ccccc23)C(=O)N[C@@H](Cc2ccccc2)C(=O)N2CCC[C@@H]2C(=O)N[C@H]1Cc1ccc(O)cc1`, for which the Ki on Mu-type opioid receptor [3] is 120 nM; in [1], greater than 1000 nM; in test [2] it was 140 nM. Also, the Ratio Ki in the test filed under Homo sapiens amounted to 0.85.
On to `CC(=O)N1CCC[C@@H]1C(=O)N[C@@H](Cc1ccccc1)C(=O)N[C@H](Cc1c[nH]c2ccccc12)C(=O)N[C@@H](Cc1ccccc1)C(N)=O`, for which the values for the Ki (at Mu-type opioid receptor [3]; in [1]; in test [2]) were 340 nM, greater than 1000 nM and greater than 1000 nM, respectively.
Take `C[C@@H]1NC(=O)[C@@H](Cc2c[nH]c3ccccc23)NC(=O)[C@H](Cc2ccccc2)NC(=O)[C@H]2CCCN2C1=O` (cyclo(A[dP]F[dW])): the values for the IC50 (on Mu-type opioid receptor [4]; in test [5]) were 48 nM and 5 nM, respectively. Besides, the Ki is 22 nM at Mu-type opioid receptor [3], greater than 1000 nM in test [1] and 5.2 nM in test [2]. The Ratio Ki in the test filed under Homo sapiens was determined as 4.2.
Turning to `O=C1N[C@H](Cc2c[nH]c3ccccc23)C(=O)N[C@@H](Cc2ccc(F)cc2)C(=O)N2CCC[C@@H]2C(=O)N[C@H]1Cc1ccccc1`, the Ki was 210 nM on Mu-type opioid receptor [3], greater than 1000 nM in [1] and 28 nM in test [2]. Also, the Ratio Ki in the test listed under Homo sapiens came out at 7.5.
As for `CC(=O)N[C@@H](Cc1ccccc1)C(=O)N1CCC[C@@H]1C(=O)N[C@@H](Cc1ccccc1)C(=O)N[C@@H](Cc1c[nH]c2ccccc12)C(N)=O`, the Ki (at Mu-type opioid receptor [3]; in test [1]; in [2]) was greater than 1000 nM throughout.
Turning to `C[C@@H]1NC(=O)[C@H]2CCCN2C(=O)[C@H](Cc2ccccc2)NC(=O)[C@@H](Cc2c[nH]c3ccccc23)NC1=O` (cyclo(A[dW]F[dP])), the Ki was 2200 nM on Mu-type opioid receptor [3], greater than 1000 nM in [1] and 1300 nM in [2]. In addition, in the test listed under Homo sapiens, the Ratio Ki worked out at 1.7.
For `O=C1N[C@H](Cc2c[nH]c3ccccc23)C(=O)N[C@@H](Cc2ccccc2)C(=O)N2CCC[C@@H]2C(=O)N[C@H]1Cc1cccc(O)c1`, the Ki on Mu-type opioid receptor [3] was 40 nM; in [1], 3400 nM; in test [2], 20 nM. Besides, in the test listed under Homo sapiens, the Ratio Ki was 2.
Take `COc1ccc(C[C@@H]2NC(=O)[C@H]3CCCN3C(=O)[C@H](Cc3ccccc3)NC(=O)[C@@H](Cc3c[nH]c4ccccc34)NC2=O)cc1`: the Ki was 43 nM on Mu-type opioid receptor [3], greater than 1000 nM in test [1] and 14 nM in [2]. Moreover, in the test listed under Homo sapiens, the Ratio Ki worked out at 3.1.
On to `CC(=O)N[C@@H](Cc1ccccc1)C(=O)N1CCC[C@@H]1C(=O)N[C@@H](Cc1ccccc1)C(=O)N[C@H](Cc1c[nH]c2ccccc12)C(N)=O`, for which the Ki (at Mu-type opioid receptor [3]; in [1]; in test [2]) was greater than 1000 nM throughout.
Turning to `CC(=O)n1cc(C[C@H](N)C(=O)N[C@@H](Cc2ccccc2)C(=O)N2CCC[C@@H]2C(=O)N[C@@H](Cc2ccccc2)C(N)=O)c2ccccc21`, the Ki (on Mu-type opioid receptor [3]; in test [1]; in test [2]) was greater than 1000 nM throughout.
Turning to `O=C1N[C@H](Cc2c[nH]c3ccccc23)C(=O)N[C@@H](Cc2ccccc2)C(=O)N2CCC[C@@H]2C(=O)N[C@H]1Cc1ccccc1` (cyclo(F[dP]F[dW])), the 50% inhibitory concentration (IC50) worked out at 21 nM on Mu-type opioid receptor [4] and 140 nM in test [5]. The inhibition constant (Ki) was 30 nM at Mu-type opioid receptor [3], greater than 1000 nM in [1] and 3.8 nM in test [2]. Moreover, the Ratio Ki in the test filed under Homo sapiens amounted to 7.9.
For the molecule `CC(=O)N1CCC[C@@H]1C(=O)N[C@@H](Cc1ccccc1)C(=O)N[C@@H](Cc1c[nH]c2ccccc12)C(=O)N[C@@H](Cc1ccccc1)C(N)=O`, the Ki (on Mu-type opioid receptor [3]; in [1]; in [2]) was greater than 1000 nM throughout.
For `COc1ccc(C[C@@H]2NC(=O)[C@@H](Cc3c[nH]c4ccccc34)NC(=O)[C@H](Cc3ccccc3)NC(=O)[C@H]3CCCN3C2=O)cc1`, the Ki on Mu-type opioid receptor [3] is 170 nM; in test [1] it was greater than 1000 nM; in [2], 66 nM. Further, in the test listed under Homo sapiens, the Ratio Ki came out at 2.6.
For the molecule `CC(=O)N[C@@H](Cc1ccccc1)C(=O)N[C@@H](Cc1c[nH]c2ccccc12)C(=O)N[C@@H](Cc1ccccc1)C(=O)N1CCC[C@@H]1C(N)=O`, the Ki (on Mu-type opioid receptor [3]; in test [1]; in [2]) was greater than 1000 nM in each case.
With `O=C1N[C@@H](Cc2ccccc2)C(=O)N2CCC[C@@H]2C(=O)N[C@@H](Cc2ccccc2)C(=O)N[C@H]1Cc1c[nH]c2ccccc12` (cyclo(FWF[dP])), the concentration for half-maximal inhibition (IC50) at Mu-type opioid receptor [6] came to 260 nM; on Mu-type opioid receptor [4], 25 nM; in test [8], 2600 nM; in [9], 47 nM; in [5], 440 nM. For the same molecule, the EC50 in test [7] turned out to be 1300 nM. Also, the Ki on Mu-type opioid receptor [3] amounted to 130 nM; in test [1] it was 2000 nM; in [2] it was 29 nM. Besides, the Ratio Ki in the test listed under Homo sapiens amounted to 4.5.
For `O=C1N[C@H](Cc2c[nH]c3ccccc23)C(=O)N[C@@H](Cc2ccccc2)C(=O)N2CCC[C@@H]2C(=O)N[C@H]1Cc1ccc(F)cc1`, the results for the Ki (at Mu-type opioid receptor [3]; in test [1]; in test [2]) were 48 nM, greater than 1000 nM and 21 nM, respectively. In the test listed under Homo sapiens, the Ratio Ki was 2.3.
As for `C[C@H]1NC(=O)[C@H](Cc2ccccc2)NC(=O)[C@H]2CCCN2C(=O)[C@H](Cc2ccccc2)NC1=O`, the Ki (on Mu-type opioid receptor [3]; in test [1]; in test [2]) was greater than 1000 nM throughout.
As to `CC(=O)N[C@H](Cc1c[nH]c2ccccc12)C(=O)N[C@@H](Cc1ccccc1)C(=O)N1CCC[C@@H]1C(=O)N[C@@H](Cc1ccccc1)C(N)=O`, the Ki (at Mu-type opioid receptor [3]; in test [1]; in test [2]) was greater than 1000 nM in each case.
